{"source": "patent US8568987B2", "about": "“Chemotaxis diagnostic” (Glycotope Biotechnology GmbH, priority 2000, dated 2013)", "key": {"[1]": {"system": "neutrophilic granulocytes", "experiment": "Granulocyte chemotaxis test: number of cells migrated through porous membrane, counted against beads by flow-through cytometry", "format": "cell-based, human", "conditions": "5×10^−8 M fMLP vs negative control containing PBS; FIG. 3B", "experimental": "(§1) 1 ml of Ficoll (Ficoll separation medium, from Seromed, order No. L6113 (endotoxin-low)) is initially introduced in an Eppendorf tube and 1 ml of fresh (preferably not older than 8 hours) heparinized whole blood (endotoxin-low heparin) is carefully overlaid at room temperature. The mixture is allowed to stand at room temperature until a marked phase separation can be observed. After a spontaneous sedimentation, normally lasting for about 40 minutes at room temperature, the leukocytes and platelets remain above the Ficoll phase while the erythrocytes have sedimented to the bottom. The sinking of the erythrocytes occurs quite suddenly after from approx. 30 to 40 minutes. […]\n(§2) 20 μl of LDS (laser dye LDS 751, from Exiton or Styryl 8, from Lambda Physik, Göttingen; for excluding the erythrocytes, 1 mg/ml, prediluted 1:50 in PBS) are added to the solution. […] The measurement is stopped after in each case 1000 or 2000 latex particles have been recorded, such that approx. 5000-15 000 neutrophils have been counted. […] The sheath fluid employed is FACS Flow (from Becton Dickinson, order No. 342003) or another carrier fluid having a low intrinsic fluorescence. […] The calibration and quality control for fluorescence measurements (intensity per cell) are carried out using the Calibrites. […]"}, "[2]": {"system": "neutrophilic granulocytes (LECAM-1 surface expression)", "experiment": "Granulocyte chemotaxis test from leukocyte-rich plasma: LECAM-1 surface expression by flow-through cytometry", "format": "cell-based, human", "conditions": "5×10^−8 M fMLP vs negative control containing PBS; FIG. 3A/3B", "experimental": "as §1, §2"}}, "data": [{"substance": "N-formyl-Met-Leu-Phe [fMLP]", "values": [{"measurement": "number of neutrophilic granulocyte cells which have migrated through the membrane, in relation to constant number of beads", "setting": "[1]", "result": "marked increase"}, {"measurement": "decrease in the surface expression of the cell adhesion molecule LECAM-1", "setting": "[2]", "result": "about one order of magnitude"}]}]}
